Active and inactive are the calls of the source. The calls are words filed in the database; no cut-off is given here.
Key:
[1] = biological target: Sodium/hydrogen exchanger 1 (Homo sapiens, UniProt P19634); test: Inhibition of human wild type NHE1 expressed in chinese hamster AP1 cells assessed as intracellular pHi recovery by ammonium chloride prepulse protocol; format: cell-based
[2] = system: AP1; test: (§1) Inhibition of Pleuronectes americanus NHE1 TM4 mutant containing VFFLF sequence of human expressed in chinese hamster AP1 cells assessed as intracellular pHi recovery by ammonium chloride prepulse protocol; format: cell-based
[3] = biological target: T1, Sodium/hydrogen exchanger (Pseudopleuronectes americanus) (UniProt Q804I7); test: Inhibition of Pleuronectes americanus wild type NHE1 expressed in chinese hamster AP1 cells assessed as intracellular pHi recovery by ammonium chloride prepulse protocol; format: cell-based
T1 sequence (whole entry): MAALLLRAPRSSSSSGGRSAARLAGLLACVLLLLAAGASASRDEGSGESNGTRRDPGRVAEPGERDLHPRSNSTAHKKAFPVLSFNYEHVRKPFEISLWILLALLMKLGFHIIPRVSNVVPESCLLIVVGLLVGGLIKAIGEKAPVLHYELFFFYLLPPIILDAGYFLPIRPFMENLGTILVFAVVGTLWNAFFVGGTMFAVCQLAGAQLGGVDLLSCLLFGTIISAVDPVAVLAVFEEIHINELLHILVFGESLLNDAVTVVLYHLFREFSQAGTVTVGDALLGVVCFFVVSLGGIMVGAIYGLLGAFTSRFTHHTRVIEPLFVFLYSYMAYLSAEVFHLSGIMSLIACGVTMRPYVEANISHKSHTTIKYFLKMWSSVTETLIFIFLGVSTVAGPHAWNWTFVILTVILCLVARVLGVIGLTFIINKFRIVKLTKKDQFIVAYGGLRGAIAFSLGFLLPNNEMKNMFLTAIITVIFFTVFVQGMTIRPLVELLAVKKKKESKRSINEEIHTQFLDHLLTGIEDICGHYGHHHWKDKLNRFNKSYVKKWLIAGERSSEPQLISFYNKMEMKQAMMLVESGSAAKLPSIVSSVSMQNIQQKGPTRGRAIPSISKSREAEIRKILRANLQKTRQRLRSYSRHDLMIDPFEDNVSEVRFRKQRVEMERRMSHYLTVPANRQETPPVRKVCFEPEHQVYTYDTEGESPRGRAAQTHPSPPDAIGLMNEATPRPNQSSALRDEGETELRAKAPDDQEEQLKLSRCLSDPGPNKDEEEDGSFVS

[4] = system: AP1; test: (§2) Inhibition of Amphiuma tridactylum NHE1 mutant containing TM10-12 domain of Pleuronectes americanus expressed in chinese hamster AP1 cells assessed as intracellular pHi recovery by ammonium chloride prepulse protocol; format: cell-based
[5] = system: AP1; test: (§3) Inhibition of Pleuronectes americanus NHE1 mutant containing TM10-12 domain of Amphiuma tridactylum expressed in chinese hamster AP1 cells assessed as intracellular pHi recovery by ammonium chloride prepulse protocol; format: cell-based
[6] = system: AP1; test: (§4) Inhibition of Pleuronectes americanus NHE1 C-terminal mutant containing TM10 domain of Amphiuma tridactylum expressed in chinese hamster AP1 cells assessed as intracellular pHi recovery by ammonium chloride prepulse protocol; format: cell-based
[7] = biological target: Sodium/hydrogen exchanger (Amphiuma tridactylum) (UniProt Q9W6Q1); test: (§5) Inhibition of Amphiuma tridactylum wild type NHE1 expressed in chinese hamster AP1 cells assessed as intracellular pHi recovery by ammonium chloride prepulse protocol; format: cell-based
Sequence of Sodium/hydrogen exchanger (Amphiuma tridactylum) (Q9W6Q1 as listed by the source): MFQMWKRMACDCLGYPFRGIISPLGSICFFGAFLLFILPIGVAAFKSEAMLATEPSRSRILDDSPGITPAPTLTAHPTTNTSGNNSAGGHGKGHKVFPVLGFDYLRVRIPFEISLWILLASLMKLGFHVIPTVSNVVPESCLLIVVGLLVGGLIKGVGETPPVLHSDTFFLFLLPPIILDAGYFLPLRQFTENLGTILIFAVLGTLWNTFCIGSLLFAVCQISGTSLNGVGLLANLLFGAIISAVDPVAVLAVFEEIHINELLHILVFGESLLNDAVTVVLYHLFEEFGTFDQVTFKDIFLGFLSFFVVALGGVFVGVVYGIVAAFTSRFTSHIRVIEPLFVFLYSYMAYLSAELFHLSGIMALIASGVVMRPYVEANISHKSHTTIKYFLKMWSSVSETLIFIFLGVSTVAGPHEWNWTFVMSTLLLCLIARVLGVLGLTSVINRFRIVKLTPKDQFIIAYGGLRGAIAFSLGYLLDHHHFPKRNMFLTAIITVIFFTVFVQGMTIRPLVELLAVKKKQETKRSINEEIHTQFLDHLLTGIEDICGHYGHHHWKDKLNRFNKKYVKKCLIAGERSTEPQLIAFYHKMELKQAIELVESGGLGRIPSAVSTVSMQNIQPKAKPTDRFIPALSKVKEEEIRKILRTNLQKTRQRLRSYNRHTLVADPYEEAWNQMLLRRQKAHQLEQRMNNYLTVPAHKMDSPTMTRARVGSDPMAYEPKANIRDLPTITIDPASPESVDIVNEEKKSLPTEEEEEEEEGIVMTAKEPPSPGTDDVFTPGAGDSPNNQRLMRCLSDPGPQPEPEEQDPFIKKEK

[8] = system: AP1; test: Inhibition of Pleuronectes americanus NHE1 TM4 mutant containing TFFLF sequence of Amphiuma tridactylum expressed in chinese hamster AP1 cells assessed as intracellular pHi recovery by ammonium chloride prepulse protocol; format: cell-based
[9] = as §1; format: cell-based
[10] = as §2; format: cell-based
[11] = biological target: T1, Sodium/hydrogen exchanger (Pseudopleuronectes americanus); test: Inhibition of osmotic cell shrinkage-induced NHE1 activity in Pleuronectes americanus RBC upto 100 uM
[12] = biological target: Sodium/hydrogen exchanger (Amphiuma tridactylum) (UniProt Q9W6Q1); test: Inhibition of osmotic cell shrinkage-induced NHE1 activity in Amphiuma tridactylum RBC
[13] = as §3; format: cell-based
[14] = as §4; format: cell-based
[15] = biological target: Sodium/hydrogen exchanger (Amphiuma tridactylum, UniProt Q9W6Q1); test: as §5; format: cell-based
Sequence of Sodium/hydrogen exchanger (Q9W6Q1 whole entry, the tested form may be a part): as the sequence (Q9W6Q1 as listed by the source) above

[16] = system: AP1; test: Inhibition of Pleuronectes americanus NHE1 C-terminal mutant containing TM7 domain of Amphiuma tridactylum expressed in chinese hamster AP1 cells assessed as intracellular pHi recovery by ammonium chloride prepulse protocol; format: cell-based
[17] = biological target: T1, Sodium/hydrogen exchanger (Pseudopleuronectes americanus); test: Inhibition of osmotic cell shrinkage-induced NHE1 activity in Pleuronectes americanus RBC at 1 mM
[18] = system: AP1; test: Inhibition of Pleuronectes americanus NHE1 C-terminal mutant with replacement of residues C-terminal to 489 position with corresponding residues of Amphiuma tridactylum expressed in chinese hamster AP1 cells assessed as intracellular pHi recovery by ammonium chloride prepulse protocol; format: cell-based
[19] = biological target: Sodium/hydrogen exchanger (Amphiuma tridactylum) (UniProt Q9W6Q1); test: Inhibition of osmotic cell shrinkage-induced NHE1 activity in Amphiuma tridactylum RBC at 100 uM
[20] = biological target: T1, Sodium/hydrogen exchanger (Pseudopleuronectes americanus); test: Inhibition of osmotic cell shrinkage-induced NHE1 activity in Pleuronectes americanus RBC at 20 uM

Sequence of Sodium/hydrogen exchanger 1 (P19634 whole entry): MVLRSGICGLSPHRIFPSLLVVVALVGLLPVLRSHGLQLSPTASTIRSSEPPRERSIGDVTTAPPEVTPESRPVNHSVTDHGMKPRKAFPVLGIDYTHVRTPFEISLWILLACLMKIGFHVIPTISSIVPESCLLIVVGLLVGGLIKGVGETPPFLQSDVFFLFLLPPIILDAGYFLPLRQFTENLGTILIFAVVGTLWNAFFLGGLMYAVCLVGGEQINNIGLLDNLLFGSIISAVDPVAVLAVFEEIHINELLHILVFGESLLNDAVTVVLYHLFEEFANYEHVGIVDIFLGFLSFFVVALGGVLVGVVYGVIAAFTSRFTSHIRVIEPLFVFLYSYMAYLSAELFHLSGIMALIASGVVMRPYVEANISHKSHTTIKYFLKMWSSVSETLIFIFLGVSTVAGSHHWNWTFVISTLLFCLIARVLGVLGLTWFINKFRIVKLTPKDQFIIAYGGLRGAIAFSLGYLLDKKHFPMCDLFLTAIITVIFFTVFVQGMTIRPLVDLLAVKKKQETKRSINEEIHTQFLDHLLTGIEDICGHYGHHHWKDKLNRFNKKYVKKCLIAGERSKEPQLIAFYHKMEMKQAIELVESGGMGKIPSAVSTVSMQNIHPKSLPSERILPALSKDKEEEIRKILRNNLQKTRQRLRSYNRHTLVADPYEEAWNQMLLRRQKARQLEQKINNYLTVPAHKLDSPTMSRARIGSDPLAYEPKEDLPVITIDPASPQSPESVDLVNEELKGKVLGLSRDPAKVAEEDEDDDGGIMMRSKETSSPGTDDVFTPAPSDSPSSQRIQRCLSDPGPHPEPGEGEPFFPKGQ

Row | Activity [1] | Activity [3] | Activity [7] | Structure (SMILES) | Activity [2] | Activity [4] | Activity [5] | Activity [6] | Activity [8] | IC50 [9] | IC50 [10] | IC50 [13] | IC50 [14] | IC50 [15] | other results
1 | Active | inactive | inactive | CC(C)c1ccc(C(=O)N=C(N)N)cc1S(C)(=O)=O | Active | Active | inactive | inactive | Active |  |  |  |  |  | 
2 |  |  |  | CCN(c1nc(N)c(C(=O)NC(=N)N)nc1Cl)C(C)C [5-(N-ETHYL-N-ISOPROPYL)AMILORIDE] |  |  |  |  |  | 0.92 µM | 5.8 µM | 11 µM | 37 µM | 8.7 µM | IC50 [1]: 0.8 µM; Activity [11]: inactive; Activity [12]: Active
3 |  |  |  | N=C(N)NC(=O)c1nc(Cl)c(N)nc1N [AMILORIDE] |  |  |  |  | Active | 118 µM | 38 µM | 137 µM | 491 µM | 98 µM | Activity [16]: Active; Activity [17]: inactive; Activity [18]: inactive
4 | Active | inactive | inactive | CS(=O)(=O)c1cc(C(=O)N=C(N)N)ccc1N1CCCCC1 | Active | Active | inactive | inactive | Active |  |  |  |  |  | Activity [19]: inactive; Activity [20]: inactive
